Entries after “also recorded” stand apart in the source; their conditions may differ. Read-outs that look alike come from different tables or passages of the source.
How the values were obtained:
[1] = system: phosphoenol pyruvate carboxylase; assay: Stability of phosphoenol pyruvate carboxylase on storage with protease inhibitors (activity assay on TECHNICON RA-1000); type: biochemical; settings: for Percent Activity Remaining at Time (hrs.): about 20 mg/ml enzyme, Benzamidine 4mM, p-Amino benzamidine 4mM, TPCK 0.5mM, Soya Bean Trypsin Inhibitor 10 mg/ml, Egg white Trypsin Inhibitor 10 mg/ml, BSA 20mg/ml, Aprotinin 0.5 mg/ml, PMSF 1 mM
Experimental: The activity assays to determine the stability of phosphoenol pyruvate carboxylase were done on a TECHNICON RA-1000 clinical analyzer in accordance with established protocols for such analysis. (TECHNICON RA-1000 is a registered trademark of Technicon Instruments Corporation, Tarrytown, N.Y.) In accordance with such protocol, the enzyme solution, R₂, was placed in the sample cup. The other constituents of the assay mixture, R₁, were placed in the reagent boat. 10 µl of R₂ were mixed with 350 µl of R₁. The reaction was done at 37°C and there was a 30 second incubation period before the readings were taken. The reported activity remaining refers to the percentage of the activity determined when fresh solutions were made initially.
The solid enzyme samples were dissolved in 50 mM Hepes, pH 7.0 containing 0.1% benzoic and .01% gentamicin (R₂). The stability study was done in R₂ containing about 20 mg/ml enzyme at room temperature. The ratio of soya bean trypsin inhibitor to phosphoenol pyruvate by weight mg/ml was 10:20. The specific activity of soya bean was 7000 BAEE inhibitor units/mg and that of phosphoenol pyruvate was one unit/mg. The components of the activity assay were in R₁ as NADH, 1.3 x 10⁻⁴M; phosphoenol pyruvate, 2.5 x 10⁻³M; magnesium acetate, 1.06 x 10⁻²M and NaHCO₃, 5 x 10⁻³M; were in 104 mM tris-acetate pH 8.3 (at room temperature).
The samples were stored at room temperature in 50 mM Hepes buffer pH 7.0 containing 0.1% benzoate acid .01% gentamycin. […]

[2] = system: PGM/PAGM enzyme solution; assay: Stability of PGM/PAGM enzyme solution on storage with protease inhibitors (coupled glucose-6-phosphate dehydrogenase rate assay at 340 nm); type: biochemical, Porcine; settings: for stabilizing effect compared between inhibitors (in words) / time enzyme activity was protected: DEAE-Tris acryl purified preparation, 4°C; for stabilizing effect compared between inhibitors (in words): pH 7.5, aprotinin .5 mg/ml, leupeptin 0.5 mg/ml, α,α′-bipyridal 2 mM; for effect on PGM/PAGM activity (in words): TPCK 2mM; for time enzyme activity was protected: 50 mM imidazole chloride pH 7.5, p-aminobenzamidine 5mM, benzamidine 5mM
Experimental: The presence of proteases was detected pursuant to the protocol discussed above. The quantitative assay for protease activity was done with N-α - benzoyl-L-arginine-p-nitroanalide as a substrate by a published procedure (H. Fritz, I. Truntschold and E. Werle; "Methods of Enzymatic Analysis", Ed. H. Bergmeyer, Vol. II, Academic Press, N.4. 1974). The method consist of (1) 0.2M triethanolamine buffer (pH 7.8) with 20 mM CaCl₂, (2) trypsin standard in 1 mM HCl, (3) substrate solution, 2.2 mM in water. The sensitivity can be enhanced four-fold if the concentration of the substrate was increased five times. A clear solution of the substrate was obtained by placing it in a boiling water bath for 5 minutes. The reaction mixture consisted of a .675 ml buffer and 0.325 ml substrate solution. The rate was measured at 405 nm at 37°C on a DU 8 spectrophotometer from Beckman Instruments, Inc. It was possible to detect protease activity equivalent to 1 mg/L trypsin when the standard trypsin was activity of 11000 u/mg with substrate N-α-benzoyl-L-arginine p-nitroanalide. The activity of the PGM/PAGM enzyme solution was determined using the following reaction mixture. NAD⁺, 10⁻³M; glucose-1-phosphate, 2x10⁻⁴M; glucose-1,6-diphosphate, 10⁻⁵M; Mg Acetate, 2 x 10⁻³M; EDTA, 2 x 10⁻⁴M and 1 u/ml glucose-6-phosphate dehydrogenase in 50 mM imidazole acetate, pH 7.5. The reaction was started by adding an aliquot of the enzyme solution and the rate was measured 37°C at 340 nm on a DU-8 spectro- photometer. This method is essentially similar to the literature procedures (W. Ray and E. Peck, The Enzymes, 6, 407, 1972. H. Bergmeyer, "Methods of Enzymatic Analysis" Ed. H. Bergmeyer Vol. I, Academic Press, N.Y. 1974).
A series of experiments were done to determine the stabilizing effect of various inhibitors. In one experiment the enzyme preparation included was 30-70% ammonium sulfate fraction. The effects of soya bean trypsin inhibitor (10 mg/ml), tosyl phenyl chloromethyl ketone (TPCK) (2mM) and α-antitrypsin inhibitor (2 mg/ml) were studied at pH 5.0 and 7.5, in 50 mM imidazole acetate buffer; 0.2 mM EDTA, 10 mM magnesium acetate. The stability was done at two pH values as the formation and dissociation of the inhibitor complex with trypsin is pH dependent. […] PAGM enzyme may also have serine residues at the active site. […] There was some protection afforded by α-antitrypsin inhibitor over longer periods of time at pH 7.5.
In another experiment, the enzyme preparation after ammonium sulfate fractionation was purified through DEAE-Tris acryl column chromatography. […] These trace amounts of proteases were sufficient to cause denaturation of the enzyme. A stability study using various inhibitors of proteases: aprotinin (.5 mg/ml), soybean trypsin inhibitor (5 mg/ml), p-aminobenzamidine (5mM), benzamidine (5mM), α,α′-bipyridal (2 mM) and leupeptin (0.5 mg/ml) was done. The enzyme was stored at 4°C in 50 mM imidazole chloride, 2 mM Mg acetate and .2 mM EDTA, pH 7.5. The activity was assayed at different times. […] The enzymes were stable in the presence of soya bean trypsin inhibitor for one week.

[3] = 2.5 hrs at room temperature in R2 (50 mM Hepes pH 7.0), control 80
[4] = 5 hrs at room temperature in R2 (50 mM Hepes pH 7.0), control 80
[5] = 23 hrs at room temperature in R2 (50 mM Hepes pH 7.0), control 25
[6] = 20 Hrs, absence of (NH₄)₂SO₄, PMSF 1mM, α-Antitrypsin Inhibitor 5 mg/ml, p-Nitrophenyl-p-Guanidinobenzoate 0.1mg/ml, Ovomucoid 10 mg/ml, D-Tryptophan methyl ester 5mM, 4-Phenyl butylamine 10mM, D-Arginine 10mM, D-phenylalanine 5mM, control 35
[7] = 25 Hrs, absence of (NH₄)₂SO₄, PMSF 1mM, α-Antitrypsin Inhibitor 5 mg/ml, p-Nitrophenyl-p-Guanidinobenzoate 0.1mg/ml, Ovomucoid 10 mg/ml, D-Tryptophan methyl ester 5mM, 4-Phenyl butylamine 10mM, D-Arginine 10mM, D-phenylalanine 5mM, control 26
[8] = 20 Hrs, in presence of (NH₄)₂SO₄ (50 mM), inhibitor concentrations as without salt (PMSF 1mM, α-Antitrypsin Inhibitor 5 mg/ml, p-Nitrophenyl-p-Guanidinobenzoate 0.1mg/ml, Ovomucoid 10 mg/ml, D-Tryptophan methyl ester 5mM)
[9] = 25 Hrs, in presence of (NH₄)₂SO₄ (50 mM), inhibitor concentrations as without salt (PMSF 1mM, α-Antitrypsin Inhibitor 5 mg/ml, p-Nitrophenyl-p-Guanidinobenzoate 0.1mg/ml, Ovomucoid 10 mg/ml, D-Tryptophan methyl ester 5mM)
[10] = NaCl up to 200 mM replacing (NH₄)₂SO₄ with 10 mg/ml ovomucoid, phosphoenol pyruvate 5 mM

SMILES	Percent Activity Remaining at Time (hrs.) [1, 3]	Percent Activity Remaining at Time (hrs.) [1, 4]	Percent Activity Remaining at Time (hrs.) [1, 5]	Percent Activity Remaining at Time (Hrs.) [1, 6]	Percent Activity Remaining at Time (Hrs.) [1, 7]	other results
[Cl-].[Na+] [NaCl]						stabilizing effect on phosphoenol pyruvate carboxylase (in words) [1]: negligible
CC(=O)N[C@@H](CC(C)C)C(=O)N[C@@H](CC(C)C)C(=O)N[C@H](C=O)CCCNC(=N)N [Leupeptin]						stabilizing effect compared between inhibitors (in words) [2]: equally effective
Cc1ccc(S(=O)(=O)N[C@@H](Cc2ccccc2)C(=O)CCl)cc1 [TPCK]	74%	68%	28%			effect on PGM/PAGM activity (in words) ([2]; pH 5.0, 30-70% ammonium sulfate fraction): destroyed the activity sooner than the control; effect on PGM/PAGM activity (in words) ([2]; pH 7.5, 30-70% ammonium sulfate fraction, soya bean trypsin inhibitor 10 mg/ml, α-antitrypsin inhibitor 2 mg/ml): did not show any additional inactivation
N[C@H](Cc1ccccc1)C(=O)O [D-phenylalanine]				57%	51%	
c1ccc(-c2ccccn2)nc1 [α,α′-bipyridal]						stabilizing effect compared between inhibitors (in words) [2]: least effective
N=C(N)c1ccccc1 [Benzamidine]	83%	83%	32%			time enzyme activity was protected [2]: 5 days
NCCCCc1ccccc1 [4-Phenyl butylamine]				57%	51%	
O=S(=O)(F)Cc1ccccc1 [PMSF, phenyl methyl sulfonyl fluoride]	87%	89%	56%	71%	61%	Percent Activity Remaining at Time (Hrs.) [1, 8]: 90%; Percent Activity Remaining at Time (Hrs.) [1, 9]: 88%; stabilizing effect on phosphoenol pyruvate carboxylase (in words) [1, 10]: especially effective; also recorded: most effective stabilizer; original activity ([1]; PMSF in combination with ammonium sulfate, for 24 hours): 88%; Effectiveness ([1]; protection of PEPC activity, comparison of all effective inhibitors): 24 to 48 h
COC(=O)[C@H](N)Cc1c[nH]c2ccccc12 [D-Tryptophan methyl ester]				32%	26%	Percent Activity Remaining at Time (Hrs.) [1, 8]: 68%; Percent Activity Remaining at Time (Hrs.) [1, 9]: 71%
N=C(N)c1ccc(N)cc1 [p-Amino benzamidine]	75%	75%	28%			time enzyme activity was protected [2]: 14 days
N=C(N)Nc1ccc(C(=O)Oc2ccc([N+](=O)[O-])cc2)cc1 [p-Nitrophenyl-p-Guanidinobenzoate]				42%	36%	Percent Activity Remaining at Time (Hrs.) [1, 8]: 60%; Percent Activity Remaining at Time (Hrs.) [1, 9]: 57%
N=C(N)NCCC[C@@H](N)C(=O)O [D-Arginine]				30%	24%	
C=C(OP(=O)(O)O)C(=O)O [phosphoenol pyruvate]						stabilizing effect on phosphoenol pyruvate carboxylase (in words) [1, 10]: unstable

Reference: patent EP0306167A2, “Stabilization of enzymes by inhibiting proteolytic enzyme contaminants” (TECHNICON INSTRUMENTS CORPORATION(a Delaware corporation), priority 1987, dated 1989)
